In paper PMC5218480 (PLoS ONE, 2017):

Tested on: MV-4-11 cells
Assay: Gene expression microarray analysis (Affymetrix PrimeView) and GSEA
Type: cell-based, human
Design: RFU PODN (11730768_x_at) / Fold change /veh PODN (11730768_x_at) / RFU LINC00158 (11744669_a_at) / Fold change /veh LINC00158 (11744669_a_at) / RFU DUSP10 (11751237_a_at) / Fold change /veh DUSP10 (11751237_a_at) / RFU ID3 (11757404_x_at) / Fold change /veh ID3 (11757404_x_at) / RFU PLEKHG5 (11737974_s_at) / Fold change /veh PLEKHG5 (11737974_s_at) / RFU LRRC4B (11730491_at) / Fold change /veh LRRC4B (11730491_at) / RFU GIMAP4 (11747438_a_at) / Fold change /veh GIMAP4 (11747438_a_at) / RFU KRT8 (11758183_x_at) / Fold change /veh KRT8 (11758183_x_at) / RFU CNN1 (11734310_a_at) / Fold change /veh CNN1 (11734310_a_at) / RFU VPS37D (11726825_at) / Fold change /veh VPS37D (11726825_at) / RFU C10orf10 (11716522_x_at) / Fold change /veh C10orf10 (11716522_x_at) / RFU KIR2DL2 /// KIR2DL4 /// KIR2DL5A /// KIR2DL5B /// KIR2DS1 /// KIR2DS2 /// KIR2DS3 /// KIR2DS4 /// KIR3DL3 /// KIR3DL3 /// KIR3DS1 (11738374_at) / Fold change /veh KIR2DL2 /// KIR2DL4 /// KIR2DL5A /// KIR2DL5B /// KIR2DS1 /// KIR2DS2 /// KIR2DS3 /// KIR2DS4 /// KIR3DL3 /// KIR3DL3 /// KIR3DS1 (11738374_at) / RFU C1QL1 (11718748_at) / Fold change /veh C1QL1 (11718748_at) / RFU TMPRSS4 (11747572_a_at) / Fold change /veh TMPRSS4 (11747572_a_at) / RFU HAMP (11756126_x_at) / Fold change /veh HAMP (11756126_x_at) / RFU RNFT2 (11725882_a_at) / Fold change /veh RNFT2 (11725882_a_at) / RFU NR4A2 (11747474_a_at) / Fold change /veh NR4A2 (11747474_a_at) / RFU ABCC12 (11746883_a_at) / Fold change /veh ABCC12 (11746883_a_at) / RFU TMEM136 (11760407_x_at) / Fold change /veh TMEM136 (11760407_x_at) / RFU CLDN22 /// WWC2 (11732394_at) / Fold change /veh CLDN22 /// WWC2 (11732394_at) / RFU HLA-DPB1 (11760878_x_at) / Fold change /veh HLA-DPB1 (11760878_x_at) / RFU SPINT1 (11716480_a_at) / Fold change /veh SPINT1 (11716480_a_at) / RFU GAP43 (11754022_s_at) / Fold change /veh GAP43 (11754022_s_at) / RFU A4GNT (11735810_at) / Fold change /veh A4GNT (11735810_at) / RFU PRB3 (11715151_x_at) / Fold change /veh PRB3 (11715151_x_at) / RFU TUBB4B (11761932_at) / Fold change /veh TUBB4B (11761932_at) / RFU CAPN14 (11732068_a_at) / Fold change /veh CAPN14 (11732068_a_at) / RFU TMCC2 (11721928_a_at) / Fold change /veh TMCC2 (11721928_a_at) / RFU IRGQ (11745062_a_at) / Fold change /veh IRGQ (11745062_a_at) / RFU FAM174B (11720279_a_at) / Fold change /veh FAM174B (11720279_a_at) / RFU TMPRSS4 (11748680_a_at) / Fold change /veh TMPRSS4 (11748680_a_at) / RFU FAM212B (11763350_a_at) / Fold change /veh FAM212B (11763350_a_at) / RFU PLEKHG5 (11743358_a_at) / Fold change /veh PLEKHG5 (11743358_a_at) / RFU ZSCAN30 (11745921_a_at) / Fold change /veh ZSCAN30 (11745921_a_at) / RFU CMKLR1 (11741424_a_at) / Fold change /veh CMKLR1 (11741424_a_at) / RFU LOC101060620 /// MAPK8IP1 (11723275_at) / Fold change /veh LOC101060620 /// MAPK8IP1 (11723275_at) / RFU SPTSSB (11747773_x_at) / Fold change /veh SPTSSB (11747773_x_at) / RFU PRSS12 (11739890_at) / Fold change /veh PRSS12 (11739890_at) / RFU BIN1 (11741810_x_at) / Fold change /veh BIN1 (11741810_x_at) / RFU WNT11 (11732464_a_at) / Fold change /veh WNT11 (11732464_a_at) / RFU C10orf10 (11716521_a_at) / Fold change /veh C10orf10 (11716521_a_at) / RFU C5orf56 (11738089_at) / Fold change /veh C5orf56 (11738089_at) / RFU CYB561 (11721691_x_at) / Fold change /veh CYB561 (11721691_x_at) / RFU ANKRD19P (11752326_a_at) / Fold change /veh ANKRD19P (11752326_a_at) / RFU OR2T12 /// OR2T33 /// OR2T8 (11738714_s_at) / Fold change /veh OR2T12 /// OR2T33 /// OR2T8 (11738714_s_at) / RFU VCAN (11748164_a_at) / Fold change /veh VCAN (11748164_a_at) / RFU JSRP1 (11732532_at) / Fold change /veh JSRP1 (11732532_at) / RFU KRTAP10-11 (11738290_x_at) / Fold change /veh KRTAP10-11 (11738290_x_at) / RFU MYO3A (11730013_a_at) / Fold change /veh MYO3A (11730013_a_at) / RFU EBF3 (11725865_a_at) / Fold change /veh EBF3 (11725865_a_at) / RFU CAMK2N1 (11719241_x_at) / Fold change /veh CAMK2N1 (11719241_x_at) / RFU C5orf56 (11738088_a_at) / Fold change /veh C5orf56 (11738088_a_at) / RFU OLFML3 (11715873_a_at) / Fold change /veh OLFML3 (11715873_a_at) / RFU LOC100653217 /// NTM (11731650_a_at) / Fold change /veh LOC100653217 /// NTM (11731650_a_at) / RFU MAPK11 (11762145_a_at) / Fold change /veh MAPK11 (11762145_a_at) / RFU FIZ1 (11724087_x_at) / Fold change /veh FIZ1 (11724087_x_at) / RFU OASL (11726364_x_at) / Fold change /veh OASL (11726364_x_at) / RFU SOX15 (11748057_x_at) / Fold change /veh SOX15 (11748057_x_at) / RFU CD79A (11719716_a_at) / Fold change /veh CD79A (11719716_a_at) / RFU HIST1H1D (11736915_at) / Fold change /veh HIST1H1D (11736915_at) / RFU CASKIN2 (11723855_a_at) / Fold change /veh CASKIN2 (11723855_a_at) / RFU LOC730098 (11760151_x_at) / Fold change /veh LOC730098 (11760151_x_at) / RFU OR4N2 (11742367_at) / Fold change /veh OR4N2 (11742367_at) / RFU PRRT2 (11749266_a_at) / Fold change /veh PRRT2 (11749266_a_at) / RFU SNX32 (11753110_a_at) / Fold change /veh SNX32 (11753110_a_at) / RFU CDHR5 (11726645_a_at) / Fold change /veh CDHR5 (11726645_a_at) / RFU RCAN1 (11760418_a_at) / Fold change /veh RCAN1 (11760418_a_at) / RFU FAM167A (11723789_a_at) / Fold change /veh FAM167A (11723789_a_at) / RFU FAM26E (11764081_at) / Fold change /veh FAM26E (11764081_at) / RFU ISYNA1 (11749810_s_at) / Fold change /veh ISYNA1 (11749810_s_at) / RFU ACY1 (11761880_at) / Fold change /veh ACY1 (11761880_at) / RFU 11764098_at / Fold change /veh 11764098_at / RFU SAMD14 (11745864_x_at) / Fold change /veh SAMD14 (11745864_x_at) / RFU NPB (11741838_a_at) / Fold change /veh NPB (11741838_a_at) / RFU TMPRSS6 (11731388_a_at) / Fold change /veh TMPRSS6 (11731388_a_at) / RFU KRTAP10-2 (11738614_at) / Fold change /veh KRTAP10-2 (11738614_at) / RFU ARHGAP8 /// PRR5-ARHGAP8 (11727945_x_at) / Fold change /veh ARHGAP8 /// PRR5-ARHGAP8 (11727945_x_at) / RFU KRTAP5-7 /// NADSYN1 (11734609_at) / Fold change /veh KRTAP5-7 /// NADSYN1 (11734609_at) / RFU RASL12 (11751679_a_at) / Fold change /veh RASL12 (11751679_a_at) / RFU CDKN2B (11736163_a_at) / Fold change /veh CDKN2B (11736163_a_at) / RFU PRF1 (11729649_at) / Fold change /veh PRF1 (11729649_at) / RFU, ZNF638 /// ZNF638-IT1 / Fold change vs veh, ZNF638 /// ZNF638-IT1 / RFU, PANK3 / Fold change vs veh, PANK3 / RFU, SH3YL1 / Fold change vs veh, SH3YL1 / RFU, ZEB2 / Fold change vs veh, ZEB2 / RFU, NRIP1 / Fold change vs veh, NRIP1 / RFU, PTTG1IP / Fold change vs veh, PTTG1IP / RFU, CAPN2 / Fold change vs veh, CAPN2 / RFU, MED14 / Fold change vs veh, MED14 / RFU, SNORA58 / Fold change vs veh, SNORA58 / RFU, C1orf63 / Fold change vs veh, C1orf63 / RFU, LRRFIP1 / Fold change vs veh, LRRFIP1 / RFU, NDUFAF7 / Fold change vs veh, NDUFAF7 / RFU, SLC12A2 / Fold change vs veh, SLC12A2 / RFU, IBTK / Fold change vs veh, IBTK / RFU, ESF1 / Fold change vs veh, ESF1 / Fold change vs veh, TMEM50B / RFU, TAOK1 / Fold change vs veh, TAOK1 / RFU, ACBD3 / Fold change vs veh, ACBD3 / RFU, TMA16 / Fold change vs veh, TMA16 / RFU, RWDD3 / Fold change vs veh, RWDD3 / RFU, BCAT1 / Fold change vs veh, BCAT1 / RFU, EDEM3 / Fold change vs veh, EDEM3 / RFU, TMEM33 / Fold change vs veh, TMEM33 / RFU, WDR75 / Fold change vs veh, WDR75 / RFU, AHCTF1 / Fold change vs veh, AHCTF1 / RFU, TFRC / Fold change vs veh, TFRC / RFU, ZDHHC17 / Fold change vs veh, ZDHHC17 / RFU, NOM1 / Fold change vs veh, NOM1 / RFU, ARL8B / Fold change vs veh, ARL8B / RFU, ZBTB11 / Fold change vs veh, ZBTB11 / RFU, TAMM41 / Fold change vs veh, TAMM41 / RFU, KIAA1704 /// LOC100996395 / Fold change vs veh, KIAA1704 /// LOC100996395 / RFU, ING1 / Fold change vs veh, ING1 / RFU, TRMT61B / Fold change vs veh, TRMT61B / RFU, FUBP3 / Fold change vs veh, FUBP3 / RFU, TP53 / Fold change vs veh, TP53 / RFU, TNKS2 / Fold change vs veh, TNKS2 / RFU, ZFP14 / Fold change vs veh, ZFP14 / RFU, ACTR2 / Fold change vs veh, ACTR2 / RFU, PPP3R1 / Fold change vs veh, PPP3R1 / RFU, PIK3R1 / Fold change vs veh, PIK3R1 / RFU, HNRNPA1 / Fold change vs veh, HNRNPA1 / RFU, RNF170 / Fold change vs veh, RNF170 / RFU, ZNF28 / Fold change vs veh, ZNF28 / RFU, RNGTT / Fold change vs veh, RNGTT / RFU, OGT / Fold change vs veh, OGT / RFU, BRD1 / Fold change vs veh, BRD1 / RFU, MARS / Fold change vs veh, MARS / RFU, ZNF655 / Fold change vs veh, ZNF655 / RFU, FAHD1 / Fold change vs veh, FAHD1 / RFU, BDP1 / Fold change vs veh, BDP1 / RFU, LRRCC1 / Fold change vs veh, LRRCC1 / RFU, ARID1A / Fold change vs veh, ARID1A / RFU, ZNF146 / Fold change vs veh, ZNF146 / RFU, ZNF330 / Fold change vs veh, ZNF330 / RFU, GPN3 / Fold change vs veh, GPN3 / RFU, C9orf123 / Fold change vs veh, C9orf123 / RFU, N4BP2L2 / Fold change vs veh, N4BP2L2 / RFU, ARFIP1 / Fold change vs veh, ARFIP1 / RFU, FAM179B / Fold change vs veh, FAM179B / RFU, BCL10 / Fold change vs veh, BCL10 / RFU, UHRF1BP1L / Fold change vs veh, UHRF1BP1L / RFU, BET1 / Fold change vs veh, BET1 / RFU, CNOT2 / Fold change vs veh, CNOT2 / RFU, ZNF268 / Fold change vs veh, ZNF268 / Fold change vs veh, ZNF507 / RFU, DGCR2 / Fold change vs veh, DGCR2 / RFU, WDSUB1 / Fold change vs veh, WDSUB1 / Fold change vs veh, HSP90B1 /// MIR3652 / RFU, ADSS / Fold change vs veh, ADSS / RFU, GK / Fold change vs veh, GK / RFU, ZNF148 / Fold change vs veh, ZNF148 / RFU, TAF9 / Fold change vs veh, TAF9 / RFU, SLC1A5 / Fold change vs veh, SLC1A5 / RFU, SLMO2 / Fold change vs veh, SLMO2 / RFU, ABCC4 / Fold change vs veh, ABCC4 / RFU, LOC101060439 /// RAP1B / Fold change vs veh, LOC101060439 /// RAP1B / RFU, RFX7 / Fold change vs veh, RFX7 / RFU, GTPBP10 / Fold change vs veh, GTPBP10 / RFU, CNEP1R1 / Fold change vs veh, CNEP1R1 / RFU, BIVM-ERCC5 /// ERCC5 / Fold change vs veh, BIVM-ERCC5 /// ERCC5 / RFU, ILF3 / Fold change vs veh, ILF3 / RFU 11762660_at / Fold change /veh 11762660_at / RFU VCAN (11757783_s_at) / Fold change /veh VCAN (11757783_s_at) / RFU DDX43 (11728927_at) / Fold change /veh DDX43 (11728927_at) / RFU KRT8 (11758188_x_at) / Fold change /veh KRT8 (11758188_x_at) / RFU NKD1 (11759106_at) / Fold change /veh NKD1 (11759106_at) / RFU SRD5A1 (11742802_a_at) / Fold change /veh SRD5A1 (11742802_a_at) / RFU TPSAB1 /// TPSB2 (11721975_s_at) / Fold change /veh TPSAB1 /// TPSB2 (11721975_s_at) / RFU GSTM3 (11746129_a_at) / Fold change /veh GSTM3 (11746129_a_at) / RFU IL23R (11737362_x_at) / Fold change /veh IL23R (11737362_x_at) / RFU TMEM51 (11727254_a_at) / Fold change /veh TMEM51 (11727254_a_at) / RFU PIWIL2 (11732686_x_at) / Fold change /veh PIWIL2 (11732686_x_at) / RFU ORM1 (11744905_x_at) / Fold change /veh ORM1 (11744905_x_at) / RFU CCDC152 (11743942_at) / Fold change /veh CCDC152 (11743942_at) / RFU ECM1 (11717891_a_at) / Fold change /veh ECM1 (11717891_a_at) / RFU IL23R (11748794_a_at) / Fold change /veh IL23R (11748794_a_at) / RFU TNFAIP8L3 (11732012_x_at) / Fold change /veh TNFAIP8L3 (11732012_x_at) / RFU MBOAT4 (11741988_at) / Fold change /veh MBOAT4 (11741988_at) / RFU 11764193_at / Fold change /veh 11764193_at / RFU TMEM53 (11763286_at) / Fold change /veh TMEM53 (11763286_at) / RFU MAGEB2 (11727129_at) / Fold change /veh MAGEB2 (11727129_at) / RFU TMEM200A (11744735_a_at) / Fold change /veh TMEM200A (11744735_a_at) / RFU CCDC152 (11751479_a_at) / Fold change /veh CCDC152 (11751479_a_at) / RFU FAM211A (11726209_a_at) / Fold change /veh FAM211A (11726209_a_at) / RFU RGS16 (11746705_a_at) / Fold change /veh RGS16 (11746705_a_at) / RFU VCAN (11755009_s_at) / Fold change /veh VCAN (11755009_s_at) / RFU RHOB (11743442_s_at) / Fold change /veh RHOB (11743442_s_at) / RFU RGS16 (11720943_a_at) / Fold change /veh RGS16 (11720943_a_at) / RFU RGS16 (11720944_at) / Fold change /veh RGS16 (11720944_at) / RFU, VPS4B / Fold change vs veh, VPS4B / RFU, CREB1 / Fold change vs veh, CREB1 / RFU, DNAJC13 / Fold change vs veh, DNAJC13 / RFU, GNAQ / Fold change vs veh, GNAQ / RFU, CDK5R1 / Fold change vs veh, CDK5R1 / RFU, ZRANB3 / Fold change vs veh, ZRANB3 / RFU, CUL4A / Fold change vs veh, CUL4A / RFU, CCNY / Fold change vs veh, CCNY / RFU, UFL1 / Fold change vs veh, UFL1 / RFU, COG3 / Fold change vs veh, COG3 / RFU, DIAPH2 / Fold change vs veh, DIAPH2 / RFU, SKA2 / Fold change vs veh, SKA2 / RFU, AFF3 / Fold change vs veh, AFF3 / RFU, LMF1 / Fold change vs veh, LMF1 / RFU, IPO11 / Fold change vs veh, IPO11 / RFU, DFFB / Fold change vs veh, DFFB / RFU, FOXP1 / Fold change vs veh, FOXP1 / RFU, CARD8 / Fold change vs veh, CARD8 / RFU, STRN3 / Fold change vs veh, STRN3 / RFU, ADK / Fold change vs veh, ADK / RFU, RASSF2 / Fold change vs veh, RASSF2 / RFU, WIPF1 / Fold change vs veh, WIPF1 / RFU, LARP1B / Fold change vs veh, LARP1B / RFU, RASA1 / Fold change vs veh, RASA1 / RFU, RB1 / Fold change vs veh, RB1 / RFU, PPFIA1 / Fold change vs veh, PPFIA1 / RFU, MAT2A / Fold change vs veh, MAT2A / RFU, CCT5 / Fold change vs veh, CCT5 / RFU, WDR92 / Fold change vs veh, WDR92 / RFU, CUX1 / Fold change vs veh, CUX1 / RFU, TTC7A / Fold change vs veh, TTC7A / RFU, TMEM135 / Fold change vs veh, TMEM135 / RFU, DEPTOR / Fold change vs veh, DEPTOR / RFU, CPM / Fold change vs veh, CPM / RFU, DNAJB6 / Fold change vs veh, DNAJB6 / RFU, CACNA2D3 / Fold change vs veh, CACNA2D3 / RFU, DTX4 / Fold change vs veh, DTX4 / RFU, TFCP2 / Fold change vs veh, TFCP2 / RFU, GMCL1 /// GMCL1P1 / Fold change vs veh, GMCL1 /// GMCL1P1 / RFU, AEBP2 / Fold change vs veh, AEBP2 / RFU, SNHG1 /// SNORD22 /// SNORD25 /// SNORD26 /// SNORD27 /// SNORD28 /// SNORD29 /// SNORD31 / Fold change vs veh, SNHG1 /// SNORD22 /// SNORD25 /// SNORD26 /// SNORD27 /// SNORD28 /// SNORD29 /// SNORD31 / Fold change (Aza/veh), C12orf56 (ProbeSet 11735607_a_at) / Fold change (ACY-1035/veh), C12orf56 (ProbeSet 11735607_a_at) / Fold change (Aza/veh), FGFR1OP (ProbeSet 11751329_s_at) / Fold change (ACY-1035/veh), FGFR1OP (ProbeSet 11751329_s_at) / Fold change (Aza/veh), VPS36 (ProbeSet 11739960_a_at) / Fold change (ACY-1035/veh), VPS36 (ProbeSet 11739960_a_at) / RFU SYPL1 (11715823_x_at) / Fold change /veh SYPL1 (11715823_x_at) / RFU IGFBP7 (11715501_s_at) / Fold change /veh IGFBP7 (11715501_s_at) / RFU REEP3 (11722064_at) / Fold change /veh REEP3 (11722064_at) / RFU IGLL1 (11728026_x_at) / Fold change /veh IGLL1 (11728026_x_at): dose or concentration left out as unconfirmed
Conditions: ProbeSet 11757113_a_at; LIST D

Structure (SMILES): Nc1ncn([C@@H]2O[C@H](CO)[C@@H](O)[C@H]2O)c(=O)n1 [azacitidine]
- RFU, SNHG1 /// SNORD22 /// SNORD25 /// SNORD26 /// SNORD27 /// SNORD28 /// SNORD29 /// SNORD31: 298.12 RFU
